From BigSolDB 2.1

O=C(O)CC(S)C(=O)O (stereo not drawn)
solubility (mole fraction)
Settings | in acetone | in acetonitrile | in ethanol | in ethyl acetate | in isopropanol | in methanol | in n-butanol
278.15 K | 0.133 | 0.0114 | 0.138 | 0.0454 | 0.1 | 0.117 | 0.0909
283.15 K | 0.142 | 0.0159 | 0.154 | 0.0482 | 0.112 | 0.136 | 0.105
288.15 K | 0.149 | 0.0212 | 0.169 | 0.0515 | 0.126 | 0.157 | 0.118
293.15 K | 0.159 | 0.0296 | 0.186 | 0.0547 | 0.141 | 0.178 | 0.134
298.15 K | 0.168 | 0.0392 | 0.205 | 0.0595 | 0.156 | 0.203 | 0.153
303.15 K | 0.178 | 0.0513 | 0.224 | 0.0634 | 0.174 | 0.228 | 0.172
308.15 K | 0.19 | 0.0656 | 0.244 | 0.068 | 0.192 | 0.256 | 0.192
313.15 K | 0.202 | 0.0853 | 0.265 | 0.0732 | 0.212 | 0.285 | 0.213
318.15 K | 0.213 | 0.108 | 0.287 | 0.0787 | 0.233 | 0.314 | 0.236
323.15 K | 0.226 | 0.135 | 0.31 | 0.0849 | 0.256 | 0.345 | 0.261
328.15 K | 0.24 | 0.168 | 0.335 | 0.0915 | 0.28 | 0.379 | 0.286
333.15 K | – | 0.206 | 0.361 | 0.0991 | 0.305 | 0.412 | 0.313
